pIC50, pKd: −log10 of the molar value. Like-named read-outs stand apart in the source and are kept apart here.
Experiments:
[1] = target: T1, Beta-Amyloid Protein (1-28) (Homo sapiens, UniProt P05067); assay: Competitive inhibition of 125I-labeled HSPG binding to BAP (1-28) affinity column; details: for pIC50: unlabeled competing ligand, BAP (1-28) affinity column, read-out: concentration at 50% inhibition of 125I-HSPG binding to BAP
T1 construct: residues 1-28 of BAP or residues 597-624 of BAPP; purchased Bachem Inc., Torrance, Calif; host or cells: synthetic peptide
Experimental: ^125I-labeled HSPGs in the presence of increasing concentrations of unlabeled GAGs, or large low density HSPG (from EHS sarcoma) were applied to an Affi-gel 10 column containing BAP (residues 1-28). After nonbound PGs were eluted from the column using TBS+0.1% TX-100, bound PGs were eluted with a step gradient using 15 ml of 1M MgCl2 in TBS+0.1% TX-100, followed by 15 ml of 4M MgCl2 in TBS+0.1% TX-100, and then 10 ml of 8M urea buffer containing 3M NaCl. […] Bars indicate standard error of the mean.
In order to test the specificity of HSPG binding to BAP (1-28), competitive inhibition experiments were also performed. 125-I labeled HSPGs (100,000-200,000 dpm) were mixed with (a) HSPG from EHS sarcoma (Mr approximately 700,000) (Kato et al., 1988) (gift of Dr. Koji Kimata, Aichi, Japan), (b) heparin from porcine intestinal mucosa (Mr˜11,000; Sigma, St. Louis, Mo.), (c) chondroitin-6-sulfate from shark cartilage (Mr˜59,000; Sigma, St. Louis, Mo.), or (d) […] dextran sulfate (Mr˜110,000; Pharmacia Fine Chemicals, Uppsala, Sweden). The samples were incubated on a rotator for 2 hours at room temperature and then applied to the BAP (1-28) column. Columns were run and eluted with step gradients (1 to 4 M MgCl2) as described above.
Purified iodinated HSPGs were combined with various concentrations of unlabeled competing ligands and applied to a BAP (1-28) affinity column (FIG. 10).

[2] = test system: β/A4 amyloid deposition in rat hippocampus; assay: Rat infusion model of β/A4 amyloid deposition in hippocampus; assay type: in vivo
Experimental: For infusion studies, all reagents were dissolved and stored at 4° C. the night prior to surgery. β/A4 (residues 1-40; Bachem California Inc., Torrance, Calif.; Lot #ZJ209) was initially dissolved at 10 mg/ml in 35% acetonitrile (stock solution), with the final diluted concentration of acetonitrile less than 3% in animals infused with β/A4 or its vehicle (see below). Perlecan (basement membrane derived HSPG) and heparan sulfate (HS) GAGs were isolated and purified from the mouse Engelbreth-Holm-Swarm (EHS) sarcoma as described (6), and dissolved in sterile saline at 5 mg/ml and 10 mg/ml, respectively. Male Sprague-Dawley rats (250-300 gms; 3 months old; Harlan Sprague Dawley) were implanted with Alzet 2002 minipumps delivering the following solutions directly into hippocampus at a flow rate of 0.5 μl per hour for one week (7); 1) β/A4 (7.5 μl stock) & HSPG (92.5 μl stock), 6 animals; 2) β/A4 (7.5 μl stock) & HS GAGs (92.5 μl stock), 4 animals; 3) β/A4 (7.5 μl stock) & saline (92.5 μl), 6 animals; 4) HSPG only (100 μl), 4 animals; 5) HS GAGs only (100 μl), 4 animals; 6) saline only (100 μl), 4 animals; and 7) 35% acetonitrile (β/A4 vehicle, 7.5 μl) & saline (92.5 μl), 2 animals. High concentrations of these reagents were chosen to maximize possible effects following infusion into brain. The approximate quantity of β/A4 peptide infused into brain by the end of 1 week in each animal having β/A4 (1-40) as part of the infusate was 75 μg, at least 5 times the amount previously reported in rat models employing single acute injections (8, 9). After one week of continuous infusion, rats were sacrificed by overdose with pentobarbital and perfused with 100 ml of saline followed by 150 ml of 4% paraformaldehyde buffered with phosphate (pH 7.4), postfixed for 24 hours and transferred to phosphate buffered saline for paraffin embedding. Once embedded, consecutive 6 μm serial sections were cut and placed on poly-D-lysine coated slides. Two additional animals in the β/A4 only and the β/A4 & HSPG groups were processed for electron microscopy as described (10).
Detection of infused macromolecules was monitored using two polyclonal antibodies against synthetic β/A4 (either against β/A4 1-28 or 1-40) (13), and two monoclonal antibodies recognizing either HS GAGs (HK-249) (14) or the core protein of perlecan (HK-102) (15). Additionally, two polyclonal antibodies recognizing the core protein of perlecan (17) assessed effects of infused macromolecules (16) on endogenous brain HSPGs. Detection of other AD-like markers included Alz-50 antibody immunostaining (18), and silver staining by the modified Bielschowsky method (19). Possible inflammation-associated amyloid protein involvement was monitored by AA amyloid protein immunostaining (20). The presence of other cell types such as astrocytes was detected by immunostaining with a polyclonal antibody to glial fibrillary acidic protein (GFAP) (1:10,000 dilution; Dako), whereas microglia/macrophage infiltration was detected using a rat monoclonal antibody known as ED1 (1:2500 dilution; Serotec). For all immunostaining, negative controls consisted of using Tris-buffered saline (TBS) instead of the primary antibody, and/or preabsorption experiments using the primary antibody in the presence of excess antigen. In order to quantify possible staining and/or immunostaining differences between the various infusion groups, slides were scored blindly by two independent investigators as described (21) (Table 1; see FIG. 35).
7. Rats were anesthetized with pentobarbital (50 mg/kg) and a 27 gauge steel cannula was stereotactically implanted into the hippocampus using bregma as reference point (AP −4.8; ML 3.5; DV 4), and secured to the skull by machine screws and dental acrylic. The cannula was connected via a 15 cm coil of vinyl tubing to a model 2002 osmotic minipump (Alzet Inc.) placed subcutaneously beneath the shoulder blades. […]

[3] = target: basic fibroblast growth factor (Homo sapiens, UniProt P09038); details: mediated by heparan sulfate GAG chains; cited from earlier work
BAPP-695 = target: T2, BAPP-695 (Homo sapiens, UniProt P05067); details: single binding site; cited from earlier work
T2 construct: host or cells: baculovirus-derived

BAPP-751 = target: T3, BAPP-751 (Homo sapiens, UniProt P05067); details: single binding site; cited from earlier work
T3 construct: host or cells: baculovirus-derived

BAPP-770 = target: T4, BAPP-770 (Homo sapiens, UniProt P05067); details: single binding site; cited from earlier work
T4 construct: host or cells: baculovirus-derived

BAP (residues 1-28) = target: T5, BAP (residues 1-28) (Homo sapiens, UniProt P05067); assay: Affinity column chromatography of labeled proteoglycans on BAP (1-28) Affi-gel 10 column; assay type: binding; details: after heparitinase/heparinase digestion
T5 construct: residues 1-28 of BAP or residues 597-624 of BAPP; purchased Bachem Inc., Torrance, Calif; host or cells: synthetic peptide
Experimental: Approximately 500,000 dpm of ^35S-sulfate labeled PGs isolated from the culture media of ECs were applied to Affi-gel 10 affinity columns containing approximately 0.45 mg of 1) residues 1-28 of BAP, 2) residues 410-429, a region of BAPP present in the extracellular domain, or 3) bovine serum albumin. The labeled PGs were left on the column for 1 hour, after which non-bound radiolabelled PGs were eluted with 25 ml (50 0.5 ml fractions) of TBS+0.1% TX-100 and collected on a fraction collector. Bound PGs were then eluted from the column with 15 mls of 4M MgCl2 in TBS+0.1% TX-100.
0.5 mg or 1.0 mg of ligands consisting of 1) BAP (1-28) (Bachem Inc., Torrance, Calif.), 2) a peptide corresponding to residues 410-429 of the BAPP (gift of Dr. Dennis Selkoe, Boston, U.S.A.) or 3) bovine serum albumin (BSA fraction V, Boehringer, Mannheim Biochemical) were dissolved initially in 400 μl of double distilled water to which was added an equal volume of 0.2 M HEPES buffer (pH 7.5) containing 160 mM calcium chloride. The ligand solutions were added to 0.8-1.0 ml of Affi-gel 10 (Biorad, Richmond, Calif.) and coupling was allowed to proceed for 4 hours at 4° C., after which 1/10 volume of IM ethanolamine (pH 8.0) was added and incubation continued for an additional 1-2 hours to block remaining unreacted ester groups. Gel coupled ligand was then transferred to Biorad Econo-columns and washed with TBS in 0.1% Triton-X 100. To assess the amount of bound ligand, soluble (nonbound) protein remaining in the wash buffer was assayed. The affinity columns coupled approximately 90% of ligand initially applied (i.e. 0.45 mg or 0.90 mg).
^35S-sulfate labeled PGs isolated from the culture media (360,000 dpm) of ECs and SMCs were applied to Affi-gel 10 columns containing 1) BAP (residues 1-28), 2) BAPP (residues 410-429) or 3) Bovine serum albumin. The labeled PGs were allowed to interact with the affinity gel for 1 hour (preliminary experiments indicated maximum binding efficiency at 1 hour) and non-bound radiolabelled PGs were eluted with 25 ml of TBS+0.1% Triton X-100 (TBS-TX 100). Bound PGs were eluted with either a single-step gradient using 15 mls of 4M MgCl2 in TBS-TX 100 or a linear gradient of 0 to 4M MgCl2 in TBS-TX 100. In some experiments, columns were further eluted with 15 ml of 8M urea in 50 mM Tris-HCl (pH 7.5), with 0.5% Triton X-100 and 3M NaCl. The radioactivity per fraction was determined by scintillation counting. Most experiments were repeated a minimum of three times. Recoveries of applied radioactivity from the affinity columns ranged from 80-95%.

fibronectin = fibronectin (Homo sapiens, UniProt P02751); details: via the core protein; cited from earlier work
[4] = test system: HSPGs in AA amyloidotic mouse spleen; assay: In situ binding of BAP (1-28) to AA amyloidotic tissue sections
From the text: Six micron sections of paraffin-embedded AA amyloidotic spleen and liver (gift of Dr. Robert Kisilevsky, Kingston, Canada) were used for the in situ binding studies. AA amyloid was induced in CBA/J female mice (6-8 weeks old) using amyloid enhancing factor and silver nitrate, as previously described (Axelrad et al., 1982; Snow and Kisilevsky, 1985).
Immunostaining of tissue sections was accomplished using the avidin-biotin-immunoperoxidase method, employing the appropriate biotin-labeled secondary antibodies, followed by incubation with avidin-conjugated horseradish peroxidase complex (Vector Labs, Burlingame, Calif.). Peroxidase activity was produced by treatment with 3,3-diaminobenzidine as previously described (Snow et al., 1988a). For immunocytochemical staining, the primary antibody was used initially through a series of dilutions to obtain the best specificity with the least background staining. Only results using the optimal dilutions of primary antibody are reported.
Paraffin sections of mouse AA amyloidotic liver or spleen (obtained 4 days after initial AEF+ silver nitrate induction) were treated overnight at 4° C. with a 0.3 mg/ml or 0.5 mg/ml solution of a peptide corresponding to the extracellular domain of BAP (residues 1-28 of BAP or residues 597-624 of BAPP) (Bachem Inc., Torrance, Calif.) in Tris-buffered saline (TBS). After 18 hours, non-bound BAP was removed by extensive washing in 4 changes of TBS. Bound-BAP was then detected by immunostaining tissue sections with either of two BAP polyclonal antibodies as described above. […] These treatments included: 1) 0.50 units/ml of chondroitin ABC lyase (Seikagaku Kogyo Co. Ltd., through ICN Biomedicals) in 0.1 M enriched Tris-acetate buffer (pH 8.0) at 37° C. for 6 hours (Saitoh et al., 1968), 2) a solution of 20% nitrous acid: 33% acetic acid (1:1, volume/volume) incubated at room temperature for 6 hours (Snow et al., 1987) and 3) 10 units/ml of heparinase I and heparitinase I (Sigma, St. Louis, Mo.) in 0.20 M Tris-HCl buffer (pH 7.0) with 20 mM calcium acetate added, at 37° C. for 6 hours. […]

fibronectin, sequence (P02751 32-2477, species assumed): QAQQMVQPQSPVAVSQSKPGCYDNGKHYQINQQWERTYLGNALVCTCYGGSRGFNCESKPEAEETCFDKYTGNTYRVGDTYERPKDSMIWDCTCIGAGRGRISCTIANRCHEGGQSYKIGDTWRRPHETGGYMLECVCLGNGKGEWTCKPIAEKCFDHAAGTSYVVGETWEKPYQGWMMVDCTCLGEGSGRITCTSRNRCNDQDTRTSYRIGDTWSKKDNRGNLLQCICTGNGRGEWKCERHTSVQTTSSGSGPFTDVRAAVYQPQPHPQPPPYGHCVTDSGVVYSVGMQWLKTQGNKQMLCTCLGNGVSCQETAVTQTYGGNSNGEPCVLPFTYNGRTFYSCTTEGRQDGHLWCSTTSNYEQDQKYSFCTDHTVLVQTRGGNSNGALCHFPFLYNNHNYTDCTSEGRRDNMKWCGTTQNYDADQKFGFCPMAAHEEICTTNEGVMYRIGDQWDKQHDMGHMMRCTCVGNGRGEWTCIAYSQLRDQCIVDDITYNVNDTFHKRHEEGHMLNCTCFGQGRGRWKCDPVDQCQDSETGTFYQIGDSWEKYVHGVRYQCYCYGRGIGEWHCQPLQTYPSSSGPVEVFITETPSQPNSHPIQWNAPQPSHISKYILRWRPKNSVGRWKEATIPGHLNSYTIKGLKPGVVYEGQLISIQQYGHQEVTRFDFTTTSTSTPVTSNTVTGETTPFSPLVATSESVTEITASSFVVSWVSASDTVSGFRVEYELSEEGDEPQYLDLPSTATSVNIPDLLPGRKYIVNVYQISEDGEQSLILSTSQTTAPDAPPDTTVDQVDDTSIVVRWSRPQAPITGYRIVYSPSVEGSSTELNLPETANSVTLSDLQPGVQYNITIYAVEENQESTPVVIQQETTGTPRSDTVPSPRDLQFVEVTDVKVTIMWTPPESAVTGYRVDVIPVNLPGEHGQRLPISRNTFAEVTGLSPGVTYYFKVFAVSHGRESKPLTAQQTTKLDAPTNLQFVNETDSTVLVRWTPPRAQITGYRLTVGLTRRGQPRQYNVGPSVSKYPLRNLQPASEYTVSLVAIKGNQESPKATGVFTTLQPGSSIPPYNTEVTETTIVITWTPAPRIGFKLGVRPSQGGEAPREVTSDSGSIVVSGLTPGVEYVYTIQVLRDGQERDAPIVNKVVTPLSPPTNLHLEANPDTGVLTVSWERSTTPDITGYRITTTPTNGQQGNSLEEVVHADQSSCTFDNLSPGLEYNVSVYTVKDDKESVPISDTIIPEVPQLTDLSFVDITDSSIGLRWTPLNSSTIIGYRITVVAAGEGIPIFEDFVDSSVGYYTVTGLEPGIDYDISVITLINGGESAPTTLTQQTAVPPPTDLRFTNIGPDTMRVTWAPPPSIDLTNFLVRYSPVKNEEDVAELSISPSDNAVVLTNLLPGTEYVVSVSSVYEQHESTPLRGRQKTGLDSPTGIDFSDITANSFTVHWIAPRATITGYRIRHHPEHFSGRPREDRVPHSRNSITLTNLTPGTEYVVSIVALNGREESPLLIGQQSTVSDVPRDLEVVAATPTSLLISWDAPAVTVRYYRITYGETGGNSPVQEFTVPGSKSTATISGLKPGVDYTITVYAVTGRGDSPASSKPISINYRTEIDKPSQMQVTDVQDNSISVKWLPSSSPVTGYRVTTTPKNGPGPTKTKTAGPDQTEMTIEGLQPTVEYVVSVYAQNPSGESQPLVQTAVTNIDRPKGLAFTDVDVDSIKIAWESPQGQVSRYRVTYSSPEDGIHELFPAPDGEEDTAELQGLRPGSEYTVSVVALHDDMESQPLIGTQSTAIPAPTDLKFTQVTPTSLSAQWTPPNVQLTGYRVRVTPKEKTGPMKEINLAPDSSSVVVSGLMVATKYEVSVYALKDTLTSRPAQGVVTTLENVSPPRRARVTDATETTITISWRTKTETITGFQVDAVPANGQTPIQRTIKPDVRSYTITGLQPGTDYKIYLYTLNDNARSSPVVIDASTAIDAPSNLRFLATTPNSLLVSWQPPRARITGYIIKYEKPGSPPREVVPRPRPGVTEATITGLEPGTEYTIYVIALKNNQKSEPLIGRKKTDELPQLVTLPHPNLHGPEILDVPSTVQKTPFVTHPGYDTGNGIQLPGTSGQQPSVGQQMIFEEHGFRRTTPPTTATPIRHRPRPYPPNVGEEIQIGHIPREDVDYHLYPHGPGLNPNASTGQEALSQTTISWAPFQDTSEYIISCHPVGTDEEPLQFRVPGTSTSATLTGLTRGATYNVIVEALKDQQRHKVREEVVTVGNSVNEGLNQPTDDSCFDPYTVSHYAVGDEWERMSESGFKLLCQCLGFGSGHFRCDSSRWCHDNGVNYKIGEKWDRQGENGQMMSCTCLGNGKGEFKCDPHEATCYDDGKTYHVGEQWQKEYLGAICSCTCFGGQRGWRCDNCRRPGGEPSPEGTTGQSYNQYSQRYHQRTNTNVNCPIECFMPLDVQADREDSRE
basic fibroblast growth factor, sequence (P09038 143-288, species assumed): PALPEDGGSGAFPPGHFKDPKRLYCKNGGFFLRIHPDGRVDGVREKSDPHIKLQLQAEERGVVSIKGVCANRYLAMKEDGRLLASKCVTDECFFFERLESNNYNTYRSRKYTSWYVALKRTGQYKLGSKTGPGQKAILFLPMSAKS

EHS basement-membrane HSPG: basement membrane derived heparan sulfate proteoglycan (perlecan) from mouse Engelbreth-Holm-Swarm sarcoma, Mr approximately 700,000
inhibition of binding of 125I-labeled HSPGs to the BAP (in words) ([1]; listed as EHS HSPG): more effective competitor
inhibition of binding of 125I-labeled HSPGs to the BAP (in words) ([1]; listed as isolated basement membrane HSPG): strongly inhibited
pIC50 [1]: > 6.00
Alz-50 immunostaining adjacent to infusion site ([2]; 1 week infusion): Lack
pKd [3]: 4.52
pKd (BAPP-695): 9.05
pKd (BAPP-751): 8.00
pKd (BAPP-770): 8.05

chondroitin-6-sulfate [reference compound]
inhibition of binding of 125I-labeled HSPGs to the BAP (in words) [1]: not
competition for binding of 125I-labeled HSPG to BAP ([1]; at all concentrations except 100 uM): unable to compete

heparin [reference compound]
pIC50 [1]: 5.00

heparitinase-digested ^125I-labeled HSPGs: 125I-labeled HSPG digested with a heparitinase/heparinase mixture (core protein)
HSPGs still able to bind to the BAP column in comparison to undigested controls (BAP (residues 1-28)): 61%

high Mr HSPG of human lung fibroblasts: high Mr HSPG of human lung fibroblasts (Heremans et al. 1990)
pKd (fibronectin): 8.70

synthetic BAP (residues 1-28): peptide corresponding to the extracellular domain of BAP (residues 1-28 of BAP or 597-624 of BAPP), Bachem
BAP immunoreactivity at sites of HSPG accumulation after peptide pretreatment ([4]; sections pretreated overnight at 4° C. with peptide): strong positive immunoreactivity
change in BAP immunostaining ([4]; sections pretreated with acetic acid or chondroitin ABC lyase): little to no decrease
change in BAP immunoreactivity ([4]; sections pretreated with nitrous acid or heparitinase/heparinase): some loss

β/A4 (1-40): synthetic β/A4 residues 1-40; Bachem California Inc.
HSPG core protein immunostaining score versus groups where HSPG was part of the infusate ([2]; 1-week infusion groups): not significantly different
scoring of congo red staining ([2]; 1-week infusion groups): significant increase
scoring of thioflavin S fluorescence ([2]; 1-week infusion groups): significant increase
animals demonstrating deposition of congophilic amyloid material in brain ([2]; 1 week continuous infusion into hippocampus): 4 of 6
animals with (endogenous) HSPG immunostaining ([2]; 1 week, HSPG not part of the infusate): four
